Results from patent US20200003760A1, “IN-VITRO METHODS FOR CLASSIFYING DRUGS ACCORDING TO THEIR POTENTIAL TO CAUSE LIVER CELL INJURY” (Board of Trustees of Michigan State University, priority 2018, published 2020).
“Also recorded” adds a separate entry of the source. Where two headings read alike, the source gives them in different places.

Key:
HepG2 cells = experiment: Drug/cytokine-induced cytotoxicity (% LDH release) concentration-response in HepG2 cells; assay type: cell-based, human; parameters: key to Deltadiff: LDH release percentage points (drug/TNF Delta minus drug/VEH Delta); settings: for R10 IFN: with IFN; for R10 TNF: with TNF; for R10 TNF/IFN / EC10 TNF/IFN: with TNF and IFN; for Deltadiff: Delta of drug/TNF curve minus Delta of drug/VEH curve (LDH percentage); for cytotoxic interaction of drug with TNF / effect of IFN coexposure on the drug/TNF cytotoxic interaction / cytotoxicity of drug on its own (LDH release) / synergy with cytokines to kill HepG2 cells: HepG2, 24 h; for cytotoxic interaction of drug with TNF: TNF 10 ng/ml; for effect of IFN coexposure on the drug/TNF cytotoxic interaction: TNF and IFN 10 ng/ml each; for cytotoxicity of drug on its own (LDH release): absence of cytokines; for D10 (LDH rise of at least 10 points, yes/no) / Emax: Homo sapiens; for TNF change: D10TNF − D10VEH; for EC10: value corresponding to 10% of Delta (max-min); for EC10 / EC10 IFN / EC10 TNF / EC10 TNF/IFN: NA = no significant increase; for EC10 IFN / EC10 TNF / EC10 TNF/IFN: value corresponding to 10% of Delta; for EC10 IFN: with IFN 10 ng/ml; for EC10 TNF: with TNF 10 ng/ml; for synergy with cytokines to kill HepG2 cells: TNF and/or IFN
Procedure: Cells were passed or used for experiments when they reached approximately 80% confluence. Cells were used at passage 6-16.
HepG2 cells were plated at a density of 4×10^4 cells per well in black-walled, 96-well, tissue culture plates and were allowed to attach overnight before being treated with compounds. Drugs were reconstituted in vehicles consisting of sterile water or DMSO (concentration less than 0.5%). Cells were treated with various concentrations of the drug or its vehicle (control) alone or in combination with the cytokines TNF (10 ng/ml) and/or IFN (10 ng/ml) or their PBS vehicle (VEH). Cytotoxicity was evaluated as lactate dehydrogenase (LDH) activity released from the cells into culture medium using the Homogeneous Membrane Integrity Assay kit from Promega (Madison, Wis.).
Concentration-response curves were generated for 24 drugs, 14 of which are associated with human IDILI and 10 of which are not. […] This was necessary because four-parameter logistic modeling used in the statistical analysis requires well defined, sigmoidal concentration-response curves. Cells were exposed to drug/cytokine combinations for 24 hours. For analysis of drug concentration-response data, concentrations of each drug were expressed as a fraction of its Cmax.
Defining covariates: four-parameter logistic model. In the first phase, variables (potential covariates) for use in the classification analysis were defined from the analysis of drug concentration-response data. Initially, a one-way analysis of variance (ANOVA) was used as an omnibus test to determine if a particular treatment (e.g. drug alone or in combination with TNF and/or IFN) caused a significant change in LDH release relative to baseline (i.e., LDH release in the absence of drug, hereafter designated “min”). The criterion for significance for the ANOVA was set at α=0.01. A 1% level of significance was used to rule out more vigorously marginal relationships between concentration and response.
where LDH(x) is the percentage of LDH released at a given concentration x; x=[drug]/Cmax; min=the % LDH release at 0 drug concentration (i.e., baseline); and max=the maximal LDH response (i.e., maximum % LDH release).
where D10 is a categorical variable related to reaching a threshold LDH response above which a drug is classified as positively associated with IDILI. D10 is defined as 0 if Delta<10% LDH release and as 1 if Delta≥10% LDH release.
The base covariate R10 represents the [drug]/Cmax value associated with an increase in 10 LDH percentage points above min for a particular treatment condition and was determined by the equation:
R10 was considered to be 0 when the Delta<10% LDH (i.e. when D10=0).
EC50 quotient, EC10 quotient and R10 quotient represent the ratio between the EC50, EC10 or R10 of the drug/cytokine concentration-response curve and the respective value for the drug/VEH concentration-response curve. In some instances, the value derived from this calculation is indeterminate (i.e. when the denominator=0). In order to incorporate the quotient values into the classification models described below, the categorical variable “Q” was used to eliminate the possibility of the quotient being indeterminate. Q is defined as 0 if Delta VEH and/or Delta cytokine is <10% LDH and 1 if both Delta VEH and Delta cytokine are ≥10% LDH. […] The same condition was applied for calculation of EC10 quotient and R10 quotient.
Deltadiff represents the difference between the Delta of the drug/cytokine concentration-response curve and the Delta of the drug/VEH curve. In other words, Deltadiff=(Delta cytokine)−(Delta VEH). FIG. 1 graphically illustrates several of the covariates defined above. […] In addition to the covariates derived from the concentration-response curves, the maximal therapeutic plasma drug concentration (Cmax) in human patients was used in some models (Table 1).

[1] = maximal plasma concentration after pharmacologic dosing in human patients; cited from earlier work
[2] = cited from earlier work; for True classification: IDILI in human patients; for IDILI liability: criteria of Xu et al. (2008)
[3] = 10 percent increase in LDH response above min, 0 when D10 = 0, drug alone (VEH)
[4] = 10 percent increase in LDH response above min, 0 when D10 = 0
[5] = HepG2, categorical, Delta threshold 10 LDH percentage points, drug alone (VEH)
[6] = HepG2, maximal LDH response, drug alone (VEH), 24 h, read-out: max
[7] = HepG2, categorical, Delta threshold 10 LDH percentage points, drug alone (VEH), read-out: D10

| Compound | R10 (HepG2 cells; [3]) | R10 IFN (HepG2 cells; [4]) | R10 TNF (HepG2 cells; [4]) | R10 TNF/IFN (HepG2 cells; [4]) | Deltadiff (HepG2 cells) | cytotoxic interaction of drug with TNF (HepG2 cells) | cytotoxicity of drug on its own (LDH release) (HepG2 cells) | Emax (HepG2 cells; [6]) | TNF change (HepG2 cells; categorical) | EC10 (HepG2 cells; drug alone (VEH)) | EC10 IFN (HepG2 cells) | EC10 TNF (HepG2 cells) | EC10 TNF/IFN (HepG2 cells) | Cmax [1] | True classification [2] | IDILI liability [2] | Emax (HepG2 cells; [7]) | also measured |
| --- | --- | --- | --- | --- | --- | --- | --- | --- | --- | --- | --- | --- | --- | --- | --- | --- | --- | --- |
| CC[C@H]1OC(=O)[C@H](C)C(=O)[C@H](C)[C@@H](O[C@@H]2O[C@H](C)C[C@H](N(C)C)[C@H]2O)[C@](C)(OC)C[C@@H](C)C(=O)[C@H](C)[C@H]2N(CCCCn3cnc(-c4cccnc4)c3)C(=O)O[C@]12C [Telithromycin] | 76.6 [drug]/Cmax | 81.3 [drug]/Cmax | 50.5 [drug]/Cmax | 39.3 [drug]/Cmax | −17.1 | TNF significantly enhanced the cytotoxicity | statistically significant increase in LDH release | 117% | 0 | 77.0 [drug]/Cmax | 80.7 [drug]/Cmax | 47.7 [drug]/Cmax | 39.0 [drug]/Cmax | 2.77 µM | IDILI+ | IDILI+ | – | effect of IFN coexposure on the drug/TNF cytotoxic interaction (HepG2 cells): coexposure to IFN enhanced the cytotoxic interaction; D10 (LDH rise of at least 10 points, yes/no) (HepG2 cells; [5]): > 10% |
| O=C1CC2(CCCC2)CC(=O)N1CCCCN1CCN(c2ncccn2)CC1 [Buspirone] | 0 [drug]/Cmax | 0 [drug]/Cmax | 0 [drug]/Cmax | 0 [drug]/Cmax | 0 | – | – | 17.6% | 0 | – | – | – | – | 0.005 µM | IDILI− | IDILI− | < 10% | – |
| COc1c(N2C[C@@H]3CCCN[C@@H]3C2)c(F)cc2c(=O)c(C(=O)O)cn(C3CC3)c12 [Moxifloxacin] | 0 [drug]/Cmax | 0 [drug]/Cmax | 0 [drug]/Cmax | 0 [drug]/Cmax | 0 | – | – | 9.7% | 0 | – | – | – | – | 6.2 µM | – | – | < 10% | – |
| CC(C)C(=O)Nc1ccc([N+](=O)[O-])c(C(F)(F)F)c1 [Flutamide] | 0 [drug]/Cmax | 0 [drug]/Cmax | 0 [drug]/Cmax | 0 [drug]/Cmax | 0.4 | very small but statistically significant increases in LDH release | statistically significant increase in LDH release; also recorded: very small but statistically significant increases in LDH release | 24.6% | 0 | – | – | – | – | 0.36 µM | IDILI+ | IDILI+ | < 10% | synergy with cytokines to kill HepG2 cells (HepG2 cells): did not synergize with cytokines to kill HepG2 cells |
| C[C@H]1COc2c(N3CCN(C)CC3)c(F)cc3c(=O)c(C(=O)O)cn1c23 [Levofloxacin] | 0 [drug]/Cmax | 0 [drug]/Cmax | 0 [drug]/Cmax | 0 [drug]/Cmax | 0 | – | – | 14% | 0 | – | – | – | – | 15.7 µM | – | – | < 10% | – |
| CC(C)Cc1ccc(C(C)C(=O)O)cc1 (stereo not drawn) [Ibuprofen] | 51.7 [drug]/Cmax | 51.3 [drug]/Cmax | 14.4 [drug]/Cmax | 15.5 [drug]/Cmax | 3.9 | TNF significantly enhanced the cytotoxicity | statistically significant increase in LDH release | 101% | 0 | 50.9 [drug]/Cmax | 50.7 [drug]/Cmax | 14.1 [drug]/Cmax | 14.6 [drug]/Cmax | 164 µM | – | – | > 10% | – |
| CCCC(CCC)C(=O)O [Valproic Acid] | – | 51.3 [drug]/Cmax | 23.3 [drug]/Cmax | – | 37.1 | – | – | 44.5% | 0 | – | 23.4 [drug]/Cmax | – | – | 175 µM | IDILI+ | – | – | – |
| O=C(O)Cc1ccccc1Nc1c(Cl)cccc1Cl [Diclofenac] | – | 0 [drug]/Cmax | 28.3 [drug]/Cmax | 26.7 [drug]/Cmax | 21.0 | synergized with TNF to cause cytotoxicity | caused no cytotoxicity on their own | 15.6% | 1 | – | – | 23.9 [drug]/Cmax | 23.2 [drug]/Cmax | – | – | – | – | R10 (HepG2 cells): 0 [drug]/Cmax; effect of IFN coexposure on the drug/TNF cytotoxic interaction (HepG2 cells): coexposure to IFN enhanced the cytotoxic interaction; Emax (HepG2 cells; HepG2, read-out: D10): < 10% |
| CCc1ccc(CCOc2ccc(CC3SC(=O)NC3=O)cc2)nc1 (stereo not drawn) [Pioglitazone] | 80.1 [drug]/Cmax | 84.6 [drug]/Cmax | 84.5 [drug]/Cmax | 87.3 [drug]/Cmax | 0.8 | – | caused cytotoxicity on its own | 44.1% | 0 | 71.4 [drug]/Cmax | 74.2 [drug]/Cmax | 72.8 [drug]/Cmax | 81.8 [drug]/Cmax | 2.67 µM | IDILI− | IDILI− | – | synergy with cytokines to kill HepG2 cells (HepG2 cells): not enhanced by the addition of cytokines; D10 (LDH rise of at least 10 points, yes/no) (HepG2 cells; [5]): > 10% |
